In US8288385B2, “6-(3-aza-bicyclo[3.1.0]hex-3-yl)-2-phenyl-pyrimidines” (Actelion Pharmaceuticals Ltd., priority 2009, dated 2012):

These compounds were tested against T1, human P2Y12 receptor (Homo sapiens, UniProt Q9H244) (assay: P2Y12 receptor binding assay). Settings: CHO cells with recombinant expression of the human P2Y12 receptor; tritium-labeled 2-methyl-S-ADP; RT, 2 hours.
T1 construct: expressed in transfected cells; host or cells: Chinese Hamster Ovary (CHO) cells
T1 sequence (Q9H244 whole entry): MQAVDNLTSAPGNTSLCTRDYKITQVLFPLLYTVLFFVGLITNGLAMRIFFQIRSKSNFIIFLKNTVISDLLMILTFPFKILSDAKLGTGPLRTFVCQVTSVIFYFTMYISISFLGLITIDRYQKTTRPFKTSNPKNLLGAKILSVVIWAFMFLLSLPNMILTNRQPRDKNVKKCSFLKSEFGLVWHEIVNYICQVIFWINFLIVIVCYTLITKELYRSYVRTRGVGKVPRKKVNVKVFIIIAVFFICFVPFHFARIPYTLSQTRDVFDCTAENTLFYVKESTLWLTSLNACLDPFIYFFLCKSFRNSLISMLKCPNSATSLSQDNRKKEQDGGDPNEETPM
Experimental: P2Y12 Receptor Binding Assay
Chinese Hamster Ovary (CHO) cells with recombinant expression of the human P2Y12 receptor were cultured in 24 well cell-culture plates. Cells were washed three times with binding buffer (50 mM Tris pH 7.4, 100 mM NaCl, 1 mM EDTA, 0.5% BSA). The cells were then incubated with 0.5 ml per well binding buffer containing tritium-labeled 2-methyl-thio-adenosine 5′-diphosphate (2-methyl-S-ADP) (between 100,000 and 300,000 dpm per well) and various concentrations of test compounds. After incubation at RT for 2 hours, cells were washed three times with binding buffer. Then, cells were solubilized by addition of 0.5 ml solubilization buffer (SDS, NaOH, EDTA). The content of each well was then transferred into beta-counter vials and 2.0 ml of Ultima Gold Scintillation liquid was added.
Compound `CCCCOC(=O)N1CCN(C(=O)[C@@H](NC(=O)c2cc(N3C[C@@H]4[C@H](C3)[C@@H]4C(=O)O)nc(-c3ccccc3)n2)C2CC2)CC1` [Example 41, (1α,5α,6β)-3-{6-[(S)-2-(4-Butoxycarbonyl-piperazin-1-yl)-1-cyclopropyl-2-oxo-ethylcarbamoyl]-2-phenyl-pyrimidin-4-yl}-3-aza-bicyclo[3.1.0]hexane-6-carboxylic acid] has an IC50 of 22 nM. `CCCCOC(=O)N1CCN(C(=O)C(NC(=O)c2cc(N3CC4C(C3)C4C(=O)O)nc(-c3ccccc3)n2)C(C)O)CC1` [Example 42, (1α,5α,6β)-3-{6-[(1S,2R)-1-(4-Butoxycarbonyl-piperazine-1-carbonyl)-2-hydroxy-propylcarbamoyl]-2-phenyl-pyrimidin-4-yl}-3-aza-bicyclo[3.1.0]hexane-6-carboxylic acid] gave an IC50 of 50 nM. `CCCCOC(=O)N1CCN(C(=O)[C@@H](NC(=O)c2cc(N3C[C@@H]4[C@H](C3)[C@@H]4C(=O)O)nc(-c3ccccc3)n2)C(C)(C)C)CC1` [Example 43, (1α,5α,6β)-3-{6-[(S)-1-(4-Butoxycarbonyl-piperazine-1-carbonyl)-2,2-dimethyl-propylcarbamoyl]-2-phenyl-pyrimidin-4-yl}-3-aza-bicyclo[3.1.0]hexane-6-carboxylic acid] gave an IC50 of 330 nM. `CCCCOC(=O)N1CCN(C(=O)[C@@H](NC(=O)c2cc(N3C[C@@H]4[C@H](C3)[C@H]4C(=O)O)nc(-c3ccccc3)n2)C(C)(C)C)CC1` [Example 44, (1α,5α,6α)-3-{6-[(S)-1-(4-Butoxycarbonyl-piperazine-1-carbonyl)-2,2-dimethyl-propylcarbamoyl]-2-phenyl-pyrimidin-4-yl}-3-aza-bicyclo[3.1.0]hexane-6-carboxylic acid] showed an IC50 of 903 nM. In the case of `CCCCOC(=O)N1CCN(C(=O)[C@H](Cc2ccccc2)NC(=O)c2cc(N3C[C@@H]4[C@H](C3)[C@@H]4C(=O)O)nc(-c3ccccc3)n2)CC1` [Example 45, (1α,5α,6β)-3-{6-[(S)-1-Benzyl-2-(4-butoxycarbonyl-piperazin-1-yl)-2-oxo-ethylcarbamoyl]-2-phenyl-pyrimidin-4-yl}-3-aza-bicyclo[3.1.0]hexane-6-carboxylic acid], the IC50 is reported as 255 nM. `CCCCOC(=O)N1CCN(C(=O)[C@H](Cc2ccccc2)NC(=O)c2cc(N3CC4C(C3)C4C(=O)O)nc(-c3ccccc3)n2)CC1` (stereo partly drawn) [Example 46, (1α,5α,6α)-3-{6-[(S)-1-Benzyl-2-(4-butoxycarbonyl-piperazin-1-yl)-2-oxo-ethylcarbamoyl]-2-phenyl-pyrimidin-4-yl}-3-aza-bicyclo[3.1.0]hexane-6-carboxylic acid] was tested, and the IC50 was 961 nM. Work on `CCCCOC(=O)N1CCN(C(=O)[C@@H](NC(=O)c2cc(N3C[C@@H]4[C@H](C3)[C@@H]4C(=O)O)nc(-c3ccccc3F)n2)C(C)C)CC1` [Example 47, (1α,5α,6β)-3-[6-[(S)-1-(4-Butoxycarbonyl-piperazine-1-carbonyl)-2-methyl-propylcarbamoyl]-2-(2-fluoro-phenyl)-pyrimidin-4-yl]-3-aza-bicyclo[3.1.0]hexane-6-carboxylic acid] yielded an IC50 of 12 nM. For `CCCCOC(=O)N1CCN(C(=O)[C@H](CC#N)NC(=O)c2cc(N3C[C@@H]4[C@H](C3)[C@@H]4C(=O)O)nc(-c3ccccc3)n2)CC1` [Example 48, (1α,5α,6β)-3-{6-[(S)-1-(4-Butoxycarbonyl-piperazine-1-carbonyl)-2-cyano-ethylcarbamoyl]-2-phenyl-pyrimidin-4-yl}-3-aza-bicyclo[3.1.0]hexane-6-carboxylic acid], the IC50 was 74 nM. `CCCCOC(=O)N1CCN(C(=O)[C@H](CCc2nnn[nH]2)NC(=O)c2cc(N3C[C@@H]4[C@H](C3)[C@@H]4C(=O)O)nc(-c3ccccc3)n2)CC1` [Example 49, (1α,5α,6β)-3-{6-[(S)-1-(4-Butoxycarbonyl-piperazine-1-carbonyl)-3-(1H-tetrazol-5-yl)-propylcarbamoyl]-2-phenyl-pyrimidin-4-yl}-3-aza-bicyclo[3.1.0]hexane-6-carboxylic acid] gave an IC50 of less than 3.2 nM.
